Results on three compounds are retold here after ChEMBL document CHEMBL5696442, “Discovery of type II inhibitors of TGFβ-activated kinase 1 (TAK1) and mitogen-activated protein kinase kinase kinase kinase 2 (MAP4K2)” (J Med Chem, 2015).

The structures appear in SMILES notation.

Assay [1] addresses T1, Serine/threonine-protein kinase Nek9 (Homo sapiens) (UniProt Q8TD19).
T1 sequence (whole entry): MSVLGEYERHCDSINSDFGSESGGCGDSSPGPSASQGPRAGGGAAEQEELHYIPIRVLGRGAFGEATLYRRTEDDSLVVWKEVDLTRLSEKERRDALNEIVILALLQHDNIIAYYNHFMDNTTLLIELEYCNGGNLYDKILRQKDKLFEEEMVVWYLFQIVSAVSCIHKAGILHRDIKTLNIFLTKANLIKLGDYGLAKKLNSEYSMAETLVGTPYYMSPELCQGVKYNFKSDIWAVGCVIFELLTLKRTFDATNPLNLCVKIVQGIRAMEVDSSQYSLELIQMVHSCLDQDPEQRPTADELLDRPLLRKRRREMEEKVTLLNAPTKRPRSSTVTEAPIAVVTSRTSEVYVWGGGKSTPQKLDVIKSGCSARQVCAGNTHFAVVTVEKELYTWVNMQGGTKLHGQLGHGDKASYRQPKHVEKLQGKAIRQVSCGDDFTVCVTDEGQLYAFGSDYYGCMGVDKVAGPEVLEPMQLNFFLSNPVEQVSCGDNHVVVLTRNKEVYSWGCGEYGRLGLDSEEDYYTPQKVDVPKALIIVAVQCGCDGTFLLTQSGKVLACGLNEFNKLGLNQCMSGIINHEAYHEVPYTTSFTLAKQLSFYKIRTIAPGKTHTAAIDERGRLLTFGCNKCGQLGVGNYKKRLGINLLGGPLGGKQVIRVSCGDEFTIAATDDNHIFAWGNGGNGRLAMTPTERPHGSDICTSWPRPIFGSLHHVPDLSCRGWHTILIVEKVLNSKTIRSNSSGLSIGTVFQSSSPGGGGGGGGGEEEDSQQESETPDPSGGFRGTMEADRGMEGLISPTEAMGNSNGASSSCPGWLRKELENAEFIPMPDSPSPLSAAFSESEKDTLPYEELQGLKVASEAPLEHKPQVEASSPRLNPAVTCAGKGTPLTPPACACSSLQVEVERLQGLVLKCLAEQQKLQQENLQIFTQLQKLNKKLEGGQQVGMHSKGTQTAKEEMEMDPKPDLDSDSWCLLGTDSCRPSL
In words: Inhibition of NEK9 ACT labeling site in human A-375 cells at 5 uM by KiNativ Profiling analysis relative to control. The format is cell-based.

The target in assay [2] is T2, Serine/threonine-protein kinase NLK (Homo sapiens) (UniProt Q9UBE8).
T2 sequence (whole entry): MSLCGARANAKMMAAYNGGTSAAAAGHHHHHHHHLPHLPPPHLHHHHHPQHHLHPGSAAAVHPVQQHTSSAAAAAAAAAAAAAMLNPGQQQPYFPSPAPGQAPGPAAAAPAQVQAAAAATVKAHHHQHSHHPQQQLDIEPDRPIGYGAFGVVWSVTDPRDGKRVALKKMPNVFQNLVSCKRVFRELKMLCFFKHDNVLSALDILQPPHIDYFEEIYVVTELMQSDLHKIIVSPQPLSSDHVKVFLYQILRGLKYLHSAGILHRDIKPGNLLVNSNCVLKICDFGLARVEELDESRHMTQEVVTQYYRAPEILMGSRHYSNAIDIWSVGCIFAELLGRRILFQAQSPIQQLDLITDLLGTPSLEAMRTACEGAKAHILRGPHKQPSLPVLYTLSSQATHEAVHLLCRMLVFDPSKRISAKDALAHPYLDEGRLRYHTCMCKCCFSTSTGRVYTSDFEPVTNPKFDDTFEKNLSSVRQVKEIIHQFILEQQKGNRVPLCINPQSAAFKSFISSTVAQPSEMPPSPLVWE
In words: Inhibition of NLK (unknown origin) at 10 uM by Ambit Kinomescan binding assay relative to control; values are per cent of control.

Assay [3] addresses T3, Mitogen-activated protein kinase kinase kinase 7 (Homo sapiens) (UniProt O43318).
T3 sequence (whole entry): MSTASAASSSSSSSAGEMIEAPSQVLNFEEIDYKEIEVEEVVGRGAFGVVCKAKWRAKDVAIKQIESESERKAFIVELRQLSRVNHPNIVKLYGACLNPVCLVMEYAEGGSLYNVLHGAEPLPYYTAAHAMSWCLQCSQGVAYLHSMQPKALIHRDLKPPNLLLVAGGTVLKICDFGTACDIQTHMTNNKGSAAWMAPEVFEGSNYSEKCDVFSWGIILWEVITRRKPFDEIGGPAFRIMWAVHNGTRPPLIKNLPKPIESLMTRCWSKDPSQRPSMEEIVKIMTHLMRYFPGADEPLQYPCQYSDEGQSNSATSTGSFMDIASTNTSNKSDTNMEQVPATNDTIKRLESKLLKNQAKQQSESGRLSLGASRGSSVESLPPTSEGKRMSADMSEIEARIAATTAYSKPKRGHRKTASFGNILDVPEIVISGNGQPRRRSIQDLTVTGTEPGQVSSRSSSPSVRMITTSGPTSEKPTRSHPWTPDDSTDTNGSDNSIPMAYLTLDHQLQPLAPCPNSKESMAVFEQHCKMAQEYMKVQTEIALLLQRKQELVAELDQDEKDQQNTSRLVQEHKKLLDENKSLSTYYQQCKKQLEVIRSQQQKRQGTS
In words: Inhibition of TAK1 Lys2 labeling site harbouring DLKPPNLLLVAGGTVLK in human Huh-7 cells at 1 uM by KiNativ Profiling analysis relative to control. The format is cell-based.

For orientation: inhibition means the relative decrease from the control value, in per cent. A high value points to a response far below the control.

On to `CCN1CCN(Cc2ccc(NC(=O)c3ccc(C)c(/C=C/c4cnc5[nH]ccc5c4OC)c3)cc2C(F)(F)F)CC1`, for which the inhibition in assay [1] came out at 14.9%.
On to `CCN1CCN(Cc2ccc(NC(=O)c3ccc(C)c(Oc4ccnc5[nH]ccc45)c3)cc2C(F)(F)F)CC1`, for which the percent of control in assay [2] was 14%.
Regarding `CNc1cc(Oc2cc(C(=O)Nc3cc(N4CCN(C)CC4)cc(C(F)(F)F)c3)ccc2C)ncn1`, the inhibition in assay [3] was 2.5%.
